Earlier results as cited in US20060135540A1, “PPAR active compounds” (priority 2004, published 2006).

Assays:
[1] = patients, large prospective trial
PPARδ = target: T1, PPARδ (Homo sapiens, UniProt Q03181)
T1 sequence (Q03181 1-441): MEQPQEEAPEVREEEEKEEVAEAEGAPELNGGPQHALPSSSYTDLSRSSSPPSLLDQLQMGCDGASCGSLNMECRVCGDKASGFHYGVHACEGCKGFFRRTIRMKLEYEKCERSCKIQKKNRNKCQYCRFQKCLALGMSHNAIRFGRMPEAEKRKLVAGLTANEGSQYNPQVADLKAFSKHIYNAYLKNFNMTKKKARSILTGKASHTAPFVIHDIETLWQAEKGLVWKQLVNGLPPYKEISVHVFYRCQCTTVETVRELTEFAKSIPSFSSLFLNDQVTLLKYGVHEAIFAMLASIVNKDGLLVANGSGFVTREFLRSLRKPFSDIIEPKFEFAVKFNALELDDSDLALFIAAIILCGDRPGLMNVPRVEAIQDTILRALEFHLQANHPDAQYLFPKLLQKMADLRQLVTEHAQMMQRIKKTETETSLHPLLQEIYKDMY

murine PPARα = target: T2, murine PPARα (Mus musculus, UniProt P23204)
T2 sequence (P23204 1-468): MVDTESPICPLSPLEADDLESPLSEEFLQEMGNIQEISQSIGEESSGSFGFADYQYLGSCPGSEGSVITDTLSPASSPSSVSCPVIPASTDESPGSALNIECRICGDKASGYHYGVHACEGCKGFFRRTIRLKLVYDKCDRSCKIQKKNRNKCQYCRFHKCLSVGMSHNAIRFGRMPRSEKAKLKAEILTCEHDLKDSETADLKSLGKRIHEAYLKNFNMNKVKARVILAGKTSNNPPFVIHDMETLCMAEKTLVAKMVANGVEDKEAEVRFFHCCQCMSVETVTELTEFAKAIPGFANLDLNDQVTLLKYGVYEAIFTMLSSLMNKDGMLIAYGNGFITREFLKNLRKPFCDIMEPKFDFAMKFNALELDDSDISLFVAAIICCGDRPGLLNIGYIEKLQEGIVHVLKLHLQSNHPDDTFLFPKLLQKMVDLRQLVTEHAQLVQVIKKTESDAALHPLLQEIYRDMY

Structure (SMILES) | reduction in cardiovascular events or death [1] [%] | agonist selectivity for PPARδ over PPARγ (PPARδ) | activity on murine PPARα (murine PPARα)
Cc1ccc(C)c(OCCCC(C)(C)C(=O)O)c1 [gemfibrozil] | 22 |  | 
CCCc1c(OCCCOc2ccc(OCC(=O)O)cc2)ccc(C(C)=O)c1O [Compound L-165041] |  | approximately 30 fold | inactive
